What was measured:
[1] = target: T1, Recombinant Human NF-kappaB-Inducing Kinase (NIK/MAP3K14) (Homo sapiens, UniProt Q99558); assay: Biological Assay A: inhibition of recombinant human NIK/MAP3K14 activity (MSD, MBP substrate); conditions: 25 μM ATP, 10 nM NIK/MAP3K14, 1 h at 25° C.; averaged over all batches; read-out: Biochemical (MSD MBP) IC50
Experimental: Inhibition of Recombinant Human NF-kappaB-Inducing Kinase (NIKIMAP3K14) Activity
Assay buffer was 50 mM Tris pH 7.5 containing 1 mM ethylene glycol tetraacetic acid (EGTA), 1 mM dithiothreitol (DTT), 0.1 mM Na3VO4, 5 mM MgCl2, 0.01% Tween® 20. Assays were carried out in 384 well Mesoscale high binding plates which had been coated with myelin basic protein (MBP) and blocked with bovine serum albumin to prevent non-specific protein binding. All compounds tested were dissolved in dimethyl sulfoxide (DMSO) and further dilutions were made in assay buffer. Final DMSO concentration was 1% (v/v) in assays. Incubations consisted of compound (1% DMSO in control and blank wells), 25 μM Adenosine-5′-triphosphate (ATP), and 10 nM NIK/MAP3K14 substituting enzyme with buffer in the blank wells. Incubations were carried out for 1 h at 25° C. and were followed by washing and sequential incubation with rabbit anti-phospho-MBP and anti-rabbit Ig Sulfotag antibody before reading bound Sulfotag on a Mesoscale Discovery. Signal obtained in the wells containing blank samples was subtracted from all other wells and IC50's were determined by fitting a sigmoidal curve to % inhibition of control versus Log10 compound concentration.

[2] = target: T1, Recombinant Human NF-kappaB-Inducing Kinase (NIK/MAP3K14); assay: Biological Assay A2: inhibition of auto-phosphorylation of recombinant human NIK/MAP3K14 (AlphaScreen); type: biochemical; conditions: 25 microM ATP, 0.2 nM NIK/MAP3K14, 1 h at 25° C., averaged over all batches, read-out: Alpha-Screen IC50
Experimental: Inhibition of Auto-Phosphorylation of Recombinant Human NF-kappaB-Inducing Kinase (NIKIMAP3K14) Activity (AlphaScreen®)
NIK/MAP3K14 auto-phosphorylation activity was measured using the AlphaScreen® (ascreen) format (Perkin Elmer). All compounds tested were dissolved in dimethyl sulfoxide (DMSO) and further dilutions were made in assay buffer. Final DMSO concentration was 1% (v/v) in assays. Assay buffer was 50 mM Tris pH 7.5 containing 1 mM EGTA (ethylene glycol tetraacetic acid), 1 mM DTT (dithiothreitol), 0.1 mM Na3VO4, 5 mM MgCl2, 0.01% Tween® 20. Assays were carried out in 384 well Alphaplates (Perkin Elmer). Incubations consisted of compound, 25 microM Adenosine-5′-triphosphate (ATP), and 0.2 nM NIK/MAP3K14. Incubations were initiated by addition of GST-tagged NIK/MAP3K14 enzyme, carried out for 1 h at 25° C. and terminated by addition of stop buffer containing anti-phospho-IKK Ser176/180 antibody. Protein A Acceptor and Glutathione-Donor beads were added before reading using an EnVision® Multilabel Plate Reader (Perkin Elmer). Signal obtained in the wells containing blank samples was subtracted from all other wells and IC50's were determined by fitting a sigmoidal curve to % inhibition of control versus Log10 compound concentration.

[3] = test system: P-IKKα levels in L363 cells; assay: Biological Assay B: effect of compounds on P-IKKα levels in L363 cells; type: cell-based; conditions: Homo sapiens, L-363, BAFF stimulated, 2 hr treatment, averaged over all batches, read-out: IKKα Cellular IC50
Experimental: Effect of Compounds on P-IKKα Levels in L363 Cells
All compounds tested were dissolved in DMSO and further dilutions were made in culture medium. Final DMSO concentration was 1% (v/v) in cell assays. The human L363 cells (ATCC) were cultured in RPMI 1640 medium supplemented with GlutaMax and 10% fetal calf serum (PAA). Cells were routinely maintained at densities of 0.2×10^6 cells per ml-1×10^6 cells per ml at 37° C. in a humidified 5% CO2 atmosphere. Cells were passaged twice a week splitting back to obtain the low density. Cells were seeded in 96 well plates (Nunc 167008) at 2×10^6 per ml media in a volume of 75 μl per well plus 25 μl 1 μg/ml recombinant human B-cell activating factor (BAFF/BLyS/TNFSF13B). Seeded cells were incubated at 37° C. in a humidified 5% CO2 atmosphere for 24 hr. Drugs and/or solvents were added (20 μl) to a final volume of 120 μl. Following 2 hr treatment plates were removed from the incubator and cell lysis was achieved by the addition of 30 μl 5× lysis buffer followed by shaking on a plate shaker at 4° C. for 10 min. At the end of this incubation lysed cells were centrifuged at 800×g for 20 min at 4° C. and the lysate was assessed for P-IKKα levels by sandwich immuno-assay carried out in anti-rabbit antibody coated Mesoscale plates. Within an experiment, the results for each treatment were the mean of 2 replicate wells. For initial screening purposes, compounds were tested using an 8 point dilution curve (serial 1:3 dilutions). For each experiment, controls (containing MG132 and BAFF but no test drug) and a blank incubation (containing MG132 and BAFF and 10 μM ADS125117, a test concentration known to give full inhibition) were run in parallel. The blank incubation value was subtracted from all control and sample values. To determine the IC50 a sigmoidal curve was fitted to the plot of % inhibition of control P-IKKα levels versus Log10 compound concentration.

[4] = test system: JJN-3 cells; assay: Biological Assay C: antiproliferative activity on JJN-3 cells (CellTiter-Glo); type: cell-based; conditions: Homo sapiens, 72 hr treatment
Experimental: (§1) Determination of Antiproliferative Activity on LP-1, L-363 and JJN-3 Cells
(§2) All compounds tested were dissolved in DMSO and further dilutions were made in culture medium. Final DMSO concentration was 0.3% (v/v) in cell proliferation assays. Viability was assessed using CellTiter-Glo cell viability assay kit (Promega). The human LP-1, L-363 and JJN-3 cells (DSMZ) were cultured in RPMI 1640 medium supplemented with 2 mM L-glutamine, and 10% fetal calf serum (PAA). Cells were routinely kept as suspension cells at 37° C. in a humidified 5% CO2 atmosphere. Cells were passaged at a seeding density of 0.2×10^6/ml twice a week. Cells were seeded in black tissue culture treated 96-well plates (Perkin Elmer). Densities used for plating ranged from 2,000 to 6,000 cells per well in a total volume of 75 μl medium. After twenty four hours, drugs and/or solvents were added (25 μl) to a final volume of 100 μl. Following 72 hr of treatment plates were removed from the incubator and allowed to equilibrate to room temperature for approx 10 min. 100 μl CellTiter-Glo reagent was added to each well that was then covered (Perkin Elmer Topseal) and shaken on plate shaker for 10 min. Luminescence was measured on a HTS Topcount (Perkin Elmer). Within an experiment, the results for each treatment were the mean of 2 replicate wells. For initial screening purposes, compounds were tested using a 9 point dilution curve (serial 1:3 dilutions). For each experiment, controls (containing no drug) and a blank incubation (containing cells read at the time of compound addition) were run in parallel. The blank value was subtracted from all control and sample values. For each sample, the mean value for cell growth (in relative light units) was expressed as a percentage of the mean value for cell growth of the control.

[5] = test system: L-363 cells; assay: Biological Assay C: antiproliferative activity on L-363 cells (CellTiter-Glo); type: cell-based; conditions: Homo sapiens, 72 hr treatment
Experimental: as §1, §2

[6] = test system: LP-1 cells; assay: Biological Assay C: antiproliferative activity on LP-1 cells (CellTiter-Glo); type: cell-based; conditions: Homo sapiens, 72 hr treatment
Experimental: as §1, §2

T1 sequence (Q99558 whole entry): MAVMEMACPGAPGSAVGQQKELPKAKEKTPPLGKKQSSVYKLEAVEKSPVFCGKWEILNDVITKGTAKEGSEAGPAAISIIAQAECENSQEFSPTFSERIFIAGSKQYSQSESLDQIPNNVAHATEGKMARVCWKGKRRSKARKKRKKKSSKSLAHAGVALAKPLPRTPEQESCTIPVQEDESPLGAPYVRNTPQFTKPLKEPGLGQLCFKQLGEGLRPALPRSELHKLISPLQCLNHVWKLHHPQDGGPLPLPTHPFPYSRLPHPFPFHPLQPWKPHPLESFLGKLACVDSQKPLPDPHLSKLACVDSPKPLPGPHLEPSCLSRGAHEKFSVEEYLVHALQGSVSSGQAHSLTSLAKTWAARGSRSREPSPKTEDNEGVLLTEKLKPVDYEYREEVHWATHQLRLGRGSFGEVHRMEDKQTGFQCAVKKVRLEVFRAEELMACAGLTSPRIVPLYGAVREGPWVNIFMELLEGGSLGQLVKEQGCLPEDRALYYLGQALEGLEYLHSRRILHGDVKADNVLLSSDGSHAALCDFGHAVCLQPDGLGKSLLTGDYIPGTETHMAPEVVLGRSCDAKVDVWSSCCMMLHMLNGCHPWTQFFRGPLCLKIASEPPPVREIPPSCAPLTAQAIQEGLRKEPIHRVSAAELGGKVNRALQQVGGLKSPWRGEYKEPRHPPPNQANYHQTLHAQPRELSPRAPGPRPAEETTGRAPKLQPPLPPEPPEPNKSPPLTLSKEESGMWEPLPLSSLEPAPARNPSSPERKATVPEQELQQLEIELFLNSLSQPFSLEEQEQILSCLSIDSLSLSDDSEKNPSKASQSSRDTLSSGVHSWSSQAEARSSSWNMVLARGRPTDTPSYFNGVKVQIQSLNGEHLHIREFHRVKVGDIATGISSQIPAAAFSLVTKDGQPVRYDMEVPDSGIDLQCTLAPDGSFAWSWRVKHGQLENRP

Row | Structure (SMILES) | IC50 [1] | IC50 [2] | IC50 [3] | EC50 [4] | EC50 [5] | EC50 [6]
1 | Nc1ncc(F)c(-n2cc(CCCO)c3cnc(C#CC4(O)CCCC4)cc32)n1 [Compound 30] | 6.9 nM | 17 nM | 38 nM | 913 nM | 1690 nM | 4.05 µM
2 | CC(C)(O)C#Cc1cc2c(cn1)c(CCC(C)(C)O)cn2-c1ccnc(N)n1 [Compound 31] | 13 nM | 14 nM | 80 nM | 358 nM | 972 nM | 7.07 µM
3 | CC(C)(O)CCc1cn(-c2ccnc(N)n2)c2cc(C#CC3(O)CCCC3)ncc12 [Compound 32] | 22 nM | 12 nM | 154 nM | 473 nM | 1800 nM | 6.89 µM
4 | CC(C)(O)C#Cc1cc2c(cn1)c(CCC(C)(C)O)cn2-c1nc(N)ncc1F [Compound 33] | 53 nM | 25 nM | 256 nM | 1730 nM | 903 nM | 5.35 µM
5 | CC(C)(O)CCc1cn(-c2nc(N)ncc2F)c2cc(C#CC3(O)CCCC3)ncc12 [Compound 34] | 11 nM | 13 nM | 199 nM | 1710 nM | 2240 nM | 3.39 µM
6 | CC(C)(O)C#Cc1cc2c(cn1)c(/C=C/C#N)cn2-c1ccnc(N)n1 [Compound 35] | 89 nM | 49 nM | 161 nM | 420 nM | 959 nM | 2.06 µM
7 | CC(C)(O)C#Cc1cc2c(cn1)c(CCC#N)cn2-c1ccnc(N)n1 [Compound 36] | 25 nM | 12 nM | 18 nM | 199 nM | 360 nM | 4.54 µM
8 | N#CCCc1cn(-c2ccnc(N)n2)c2cc(C#CC3(O)CCCC3)ncc12 [Compound 37] | 5.1 nM | 29 nM | 119 nM | 871 nM | 1300 nM | 5.17 µM
